For the experiment, the target named is NHE1 (Rattus norvegicus, UniProt P26431). Put plainly: BCECF intracellular pH recovery after ammonium prepulse. The format is cell-based.
NHE1, sequence (P26431 whole entry): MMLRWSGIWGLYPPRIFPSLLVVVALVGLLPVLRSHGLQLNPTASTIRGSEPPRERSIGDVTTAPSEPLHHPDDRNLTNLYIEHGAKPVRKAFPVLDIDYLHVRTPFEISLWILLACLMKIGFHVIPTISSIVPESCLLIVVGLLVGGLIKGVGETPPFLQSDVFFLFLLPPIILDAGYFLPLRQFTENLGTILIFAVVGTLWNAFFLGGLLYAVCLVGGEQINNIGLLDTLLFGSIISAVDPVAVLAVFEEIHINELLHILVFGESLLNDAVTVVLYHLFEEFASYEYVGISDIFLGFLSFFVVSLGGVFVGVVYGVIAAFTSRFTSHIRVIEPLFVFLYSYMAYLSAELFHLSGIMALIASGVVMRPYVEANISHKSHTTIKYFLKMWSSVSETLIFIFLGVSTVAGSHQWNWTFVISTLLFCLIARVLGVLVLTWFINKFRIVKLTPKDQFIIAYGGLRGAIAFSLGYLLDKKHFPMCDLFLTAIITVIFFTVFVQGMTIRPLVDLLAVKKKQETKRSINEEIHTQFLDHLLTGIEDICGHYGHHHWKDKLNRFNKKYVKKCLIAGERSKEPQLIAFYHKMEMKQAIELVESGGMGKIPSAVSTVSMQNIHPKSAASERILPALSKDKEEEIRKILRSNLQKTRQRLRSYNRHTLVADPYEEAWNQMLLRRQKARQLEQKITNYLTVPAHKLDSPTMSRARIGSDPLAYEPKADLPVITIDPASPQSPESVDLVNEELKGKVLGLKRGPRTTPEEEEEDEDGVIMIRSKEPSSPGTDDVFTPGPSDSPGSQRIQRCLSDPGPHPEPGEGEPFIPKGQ

Usually IC50 stands for the concentration that inhibits the measured activity by half. Turning to `CC(C)c1ccc(C(=O)NC(=N)N)cc1S(C)(=O)=O` [cariporide], the half-inhibitory concentration (IC50) is 1100 nM.

These data come from paper PMC4006130 (Pflugers Archiv, 2013).
